Test results from PMC4586589 (The Journal of General Physiology, 2015).

Target: T1, ELIC (Erwinia chrysanthemi ligand-gated ion channel) (Dickeya chrysanthemi, UniProt P0C7B7)
T1 sequence (P0C7B7 1-321): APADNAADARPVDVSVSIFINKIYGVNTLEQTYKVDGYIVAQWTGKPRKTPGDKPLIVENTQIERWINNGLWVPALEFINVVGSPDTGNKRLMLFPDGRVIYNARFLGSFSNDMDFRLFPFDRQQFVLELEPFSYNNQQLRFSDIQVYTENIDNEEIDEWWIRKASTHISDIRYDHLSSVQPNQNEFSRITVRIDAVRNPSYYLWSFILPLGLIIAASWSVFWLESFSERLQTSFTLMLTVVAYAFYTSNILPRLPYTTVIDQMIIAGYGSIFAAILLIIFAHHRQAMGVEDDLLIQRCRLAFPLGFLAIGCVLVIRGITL
Experiment: ITC
Format: cell-based

EC50: 10.02 ± 0.05 mM
Compound: NCCCO [3-AP, 3-amino propanol]
